Results as given in patent publication US20100173915A1, “PHARMACEUTICAL COMPOSITIONS FOR THE TREATMENT OF CHRONIC HEART FAILURE COMPRISING PYRAZOLOPYRIMIDINONE DERIVATIVE COMPOUND” (DONG-A PHARMACEUTICAL. CO., LTD, priority 2007, published 2010).

What was measured:
[1] = Physicochemical properties: pKa
[2] = target: phosphodiesterase-5 (PDE-5) (Homo sapiens, UniProt O76074); settings: cited from earlier work
[3] = Physicochemical properties: solubility
[4] = In vivo half-life compared to sildenafil; settings: longer than sildenafil
[5] = tested on: collagen deposition (ventricular fibrosis); test: Collagen deposition in left ventricular tissue (Masson's trichrome) as marker of ventricular fibrosis; format: in vivo, Sprague-Dawley rats; settings: CHF rats, 30 mg/kg orally for 8 weeks, mean±SD, CHF control 0.928±0.228, normal 0.384±0.103
Experimental: (§1) Male Sprague-Dawley rats, weighing 220-240 g, were randomly divided into three groups: a normal control group
(§2) (Normal), a heart failure control group (CHF) and a treatment group (CHF plus cpd.1), each group consisting of seven rats. The pyrazolopyrimidinone derivative was orally administered to heart failure-developed animals of the treatment group in a dose of 30 mg/kg.
(§3) Normal control animals were subjected to a sham operation. […] After 8 weeks, 5 ml/kg of a solvent was orally administered to the normal control and heart failure control groups for 8 weeks, and the pyrazolopyrimidinone derivative was orally administered to the treatment group at a dose of 30 mg/kg for 8 weeks. Then, rats were anesthetized with pentobarbital (50 mg/kg, i.p.), and subjected to M-mode echocardiography in order to evaluate interventricular septum wall thickness (IWT) at end-systole (S) and end-diastole (D) of the left ventricle, posterior left ventricular wall thickness (PWT), left ventricular end-systolic dimension (LVESD), and left ventricular end-diastolic dimension (LVEDD). The relative wall thickness (RWT) was calculated according to the following equation: [IWT(D)+PWT(D)]/LVEDD, and is given in Table 1, below.
(§4) After the echocardiographic measurements, blood samples were collected from abdominal aortas to prepare serum samples. […] All values are expressed as mean±SD.

[6] = tested on: chronic heart failure-induced rats (abdominal aorta-to-inferior vena cava fistula); test: M-mode echocardiography in aortocaval fistula rat model of chronic heart failure; format: in vivo, Sprague-Dawley rats; settings: CHF rats, 30 mg/kg orally for 8 weeks, mean±SD
Experimental: as §3, with “Male Sprague-Dawley rats, weighing 220-240 g, were randomly divided into three groups: a normal control group (Normal), a heart failure control group (CHF) and a treatment group (CHF plus cpd.1), each group consisting of seven rats. The pyrazolopyrimidinone derivative was orally administered to heart failure-developed animals of the treatment group in a dose of 30 mg/kg. Normal” for “Normal”

[7] = tested on: atrial natriuretic peptide (ANP); test: Serum atrial natriuretic peptide (ANP) levels in heart failure rats; format: in vivo, Sprague-Dawley rats; settings: CHF rats, 30 mg/kg orally for 8 weeks; mean±SD; CHF control 0.040±0.004, normal 0.029±0.003
Experimental: as §1, §2, §3, §4

ANP mRNA = ANP mRNA levels in left ventricular tissue by RT-PCR; format: in vivo, Sprague-Dawley rats; settings: CHF rats, 30 mg/kg orally for 8 weeks, mean±SD, CHF control 0.963±0.114, normal 0.607±0.169
Experimental: as §1, §2, §3, §4

## CCCOc1ccc(S(=O)(=O)NCCC2CCCN2C)cc1-c1nc2c(CCC)nn(C)c2c(=O)[nH]1 (stereo not shown) [cpd.1, 5-[2-propyloxy-5-(1-methyl-2-pyrrolidinyleneamidosulfonyl)phenyl]-1-methyl-propyl-1,6-dihydro-7H-pyrazolo(4,3-d)pyrimidine-7-one]
[1]
  pKa1: about 6.5
  pKa2: about 12.5
[2]
  inhibitory activity against PDE-5: strong and selective inhibitory activity
[3]; acetic acid, methanol and chloroform
  solubility in acetic acid, methanol and chloroform: readily dissolved
[3]; water
  solubility in water: difficult to dissolve in water
[4]
  in vivo half-life relative to sildenafil: 3 times
[5]
  amount of collagen deposition in ventricular tissue: 0.604±0.214
[6]; CHF control 0.34 ± 0.02, normal 0.42 ± 0.05
  RWT, relative wall thickness [IWT(D)+PWT(D)]/LVEDD: 0.42 ± 0.05
[6]; CHF control 1.56 ± 0.09, normal 1.81 ± 0.20
  IWT(D), interventricular septum wall thickness at end-diastole: 1.74 ± 0.13 mm
[6]; CHF control 1.64 ± 0.11, normal 1.83 ± 0.13
  PWT(D), posterior left ventricular wall thickness at end-diastole: 1.78 ± 0.04 mm
[6]; CHF control 2.54 ± 0.18, normal 2.89 ± 0.15
  PWT(S), posterior left ventricular wall thickness at end-systole: 2.80 ± 0.10 mm
[6]; CHF control 2.56 ± 0.11, normal 2.83 ± 0.17
  IWT(S), interventricular septum wall thickness at end-systole: 2.74 ± 0.11 mm
[6]; CHF control 6.20 ± 0.70, normal 5.43 ± 0.31
  LVESD, left ventricular end-systolic dimension: 4.68 ± 0.38 mm
[6]; CHF control 9.75 ± 0.85, normal 8.69 ± 0.56
  LVEDD, left ventricular end-diastolic dimension: 8.45 ± 0.62 mm
[7]
  serum ANP levels: 0.033 ± 0.003 ng/mL
ANP mRNA
  ANP mRNA levels in left ventricular tissues: 0.739±0.120
